Measurements taken from patent publication US9707233B2, “Heterocyclylamines as PI3K inhibitors” (Incyte Corporation, priority 2011, dated 2017).
Counter-ions that a name gives are not always drawn.

Target: PI3Kδ (p110δ/p85α) (Homo sapiens (Human), UniProt O00329)
Assay: PI3Kδ scintillation proximity assay (Example A3)
Format: biochemical
Details: 20 μM ATP, 20 μM PIP2, 4 nM PI3Kδ; read-out: PI3Kδ SPA IC50
Protocol: [γ-^33P]ATP (10 mCi/mL) was purchased from Perkin-Elmer (Waltham, Mass.). […] PI3Kδ (p110δ/p85α) was purchased from Millipore (Bedford, Mass.). ATP, MgCl2, DTT, EDTA, MOPS and CHAPS were purchased from Sigma-Aldrich (St. Louis, Mo.). Wheat Germ Agglutinin (WGA) YSi SPA Scintillation Beads was purchased from GE healthcare life sciences (Piscataway, N.J.).
The kinase reaction was conducted in polystyrene 384-well matrix white plate from Thermo Fisher Scientific in a final volume of 25 μL. Inhibitors were first diluted serially in DMSO and added to the plate wells before the addition of other reaction components. The final concentration of DMSO in the assay was 0.5%. The PI3K assays were carried out at room temperature in 20 mM MOPS, pH 6.7, 10 mM MgCl2, 5 mM DTT and CHAPS 0.03%. Reactions were initiated by the addition of ATP, the final reaction mixture consisted of 20 μM PIP2, 20 μM ATP, 0.2 μCi [γ-^33P]ATP, 4 nM PI3Kδ. […] 25 mM EDTA, 400 μM ATP. The final concentration of SPA beads was 1.0 mg/mL. After the plate sealing, plates were shaken overnight at room temperature and centrifuged at 1800 rpm for 10 minutes, the radioactivity of the product was determined by scintillation counting on Topcount (Perkin-Elmer). IC50 determination was performed by fitting the curve of percent control activity versus the log of the inhibitor concentration using the GraphPad Prism 3.0 software.

PI3Kδ (p110δ/p85α), sequence (O00329 whole entry): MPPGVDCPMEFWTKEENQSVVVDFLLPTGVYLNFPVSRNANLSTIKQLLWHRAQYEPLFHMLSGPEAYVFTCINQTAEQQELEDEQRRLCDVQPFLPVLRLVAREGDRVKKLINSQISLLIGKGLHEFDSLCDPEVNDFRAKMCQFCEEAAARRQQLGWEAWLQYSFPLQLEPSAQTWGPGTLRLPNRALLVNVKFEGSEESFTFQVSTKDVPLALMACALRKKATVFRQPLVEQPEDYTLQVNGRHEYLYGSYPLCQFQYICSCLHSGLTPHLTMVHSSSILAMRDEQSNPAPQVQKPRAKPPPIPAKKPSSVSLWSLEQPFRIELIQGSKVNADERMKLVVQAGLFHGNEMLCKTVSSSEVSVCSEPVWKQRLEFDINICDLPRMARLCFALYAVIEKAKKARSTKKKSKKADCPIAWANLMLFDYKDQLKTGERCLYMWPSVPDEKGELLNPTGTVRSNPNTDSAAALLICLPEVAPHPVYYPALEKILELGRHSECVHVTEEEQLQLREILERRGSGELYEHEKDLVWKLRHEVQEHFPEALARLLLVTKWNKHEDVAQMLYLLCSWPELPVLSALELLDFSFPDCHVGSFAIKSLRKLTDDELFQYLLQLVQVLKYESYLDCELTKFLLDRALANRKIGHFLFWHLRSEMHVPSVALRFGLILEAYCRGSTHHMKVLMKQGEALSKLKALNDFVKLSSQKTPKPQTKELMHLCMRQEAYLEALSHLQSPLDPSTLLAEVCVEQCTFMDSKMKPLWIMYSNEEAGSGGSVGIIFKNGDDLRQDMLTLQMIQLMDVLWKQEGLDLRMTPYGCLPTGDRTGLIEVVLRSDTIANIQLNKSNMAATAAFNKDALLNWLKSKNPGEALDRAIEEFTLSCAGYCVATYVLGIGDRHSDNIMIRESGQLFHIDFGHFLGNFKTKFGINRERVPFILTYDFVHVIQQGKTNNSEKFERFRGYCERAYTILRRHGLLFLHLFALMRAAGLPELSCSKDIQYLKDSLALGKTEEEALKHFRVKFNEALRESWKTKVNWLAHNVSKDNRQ
PI3Kδ (p110δ/p85α), sequence (P27986 whole entry partner): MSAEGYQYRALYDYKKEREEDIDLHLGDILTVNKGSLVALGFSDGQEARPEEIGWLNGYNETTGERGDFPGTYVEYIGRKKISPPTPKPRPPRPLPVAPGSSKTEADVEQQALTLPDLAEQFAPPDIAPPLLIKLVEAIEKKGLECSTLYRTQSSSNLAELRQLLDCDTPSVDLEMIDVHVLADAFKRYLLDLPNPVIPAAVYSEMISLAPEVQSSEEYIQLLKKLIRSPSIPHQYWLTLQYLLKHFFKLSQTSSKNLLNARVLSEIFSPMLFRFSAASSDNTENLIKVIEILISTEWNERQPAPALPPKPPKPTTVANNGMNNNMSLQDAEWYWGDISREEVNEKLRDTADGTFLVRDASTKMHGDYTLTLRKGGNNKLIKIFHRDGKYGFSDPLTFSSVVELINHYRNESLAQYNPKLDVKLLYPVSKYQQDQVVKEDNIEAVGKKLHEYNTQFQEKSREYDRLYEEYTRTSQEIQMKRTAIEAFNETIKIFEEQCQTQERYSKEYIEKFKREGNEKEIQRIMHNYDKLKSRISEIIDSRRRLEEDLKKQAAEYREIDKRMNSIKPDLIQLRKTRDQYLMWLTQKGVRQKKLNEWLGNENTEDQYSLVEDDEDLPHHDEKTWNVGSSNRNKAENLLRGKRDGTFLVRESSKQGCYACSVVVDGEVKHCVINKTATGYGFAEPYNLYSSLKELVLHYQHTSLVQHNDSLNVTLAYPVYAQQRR

| IC50 | SMILES |
| --- | --- |
| ≤ 10 nM | COc1c(C(C)n2nc(C)c3c(N)ncnc32)cc(Cl)c(F)c1C1CN(C[C@H](C)O)C1 (single isomer, unassigned) [68 (1st peak)] |
| ≤ 10 nM | COc1c(C(C)n2nc(C)c3c(N)ncnc32)cc(Cl)c(C#N)c1-c1ccc(C(=O)N(C)C)nc1 (single isomer, unassigned) [313 (2nd peak), 5-{3-[1-(4-amino-3-methyl-1H-pyrazolo[3,4-d]pyrimidin-1-yl)ethyl]-5-chloro-6-cyano-2-methoxyphenyl}-N,N-dimethylpyridine-2-carboxamide] |
| ≤ 10 nM | CCOc1c(C(C)n2nc(C)c3c(N)ncnc32)cc(Cl)c(C#N)c1C1CNC(=O)O1 (single isomer, unassigned) [323 (1st peak), 4-[1-(4-amino-3-methyl-1H-pyrazolo[3,4-d]pyrimidin-1-yl)ethyl]-6-chloro-3-ethoxy-2-(2-oxo-1,3-oxazolidin-5-yl)benzonitrile] |
| 50 to 200 nM | CCOc1c(C(C)n2nc(C)c3c(N)ncnc32)cc(Cl)c(C#N)c1C1CNC(=O)O1 (single isomer, unassigned) [323 (3rd peak), 4-[1-(4-amino-3-methyl-1H-pyrazolo[3,4-d]pyrimidin-1-yl)ethyl]-6-chloro-3-ethoxy-2-(2-oxo-1,3-oxazolidin-5-yl)benzonitrile] |
| ≤ 10 nM | CCOc1c(C(C)n2nc(C)c3c(N)ncnc32)cc(Cl)c(C#N)c1C1CNC(=O)O1 (single isomer, unassigned) [323 (4th peak), 4-[1-(4-amino-3-methyl-1H-pyrazolo[3,4-d]pyrimidin-1-yl)ethyl]-6-chloro-3-ethoxy-2-(2-oxo-1,3-oxazolidin-5-yl)benzonitrile] |
| 50 to 200 nM | COc1c(C(C)n2nc(C)c3c(N)ncnc32)cc(Cl)c(C)c1C1CNC(=O)CO1 (single isomer, unassigned) [324 (1st peak), 6-{3-[1-(4-Amino-3-methyl-1H-pyrazolo[3,4-d]pyrimidin-1-yl)ethyl]-5-chloro-2-methoxy-6-methylphenyl}morpholin-3-one] |
| ≤ 10 nM | COc1c(C(C)n2nc(C)c3c(N)ncnc32)cc(Cl)c(C)c1C1CNC(=O)CO1 (single isomer, unassigned) [324 (2nd peak), 6-{3-[1-(4-Amino-3-methyl-1H-pyrazolo[3,4-d]pyrimidin-1-yl)ethyl]-5-chloro-2-methoxy-6-methylphenyl}morpholin-3-one] |
| ≤ 10 nM | COc1c(C(C)n2nc(C)c3c(N)ncnc32)cc(Cl)c(C)c1C1CN(C(C)C)C1 (single isomer, unassigned) [Example 1, 1-{1-[5-Chloro-3-(1-isopropylazetidin-3-yl)-2-methoxy-4-methylphenyl]ethyl}-3-methyl-1H-pyrazolo[3,4-d]pyrimidin-4-amine bis(trifluoroacetate)] |
| ≤ 10 nM | COc1c(C(C)n2nc(C)c3c(N)ncnc32)cc(Cl)c(C)c1-c1cncc(C#N)c1 (single isomer, unassigned) [Example 170, 5-(3-(1-(4-amino-3-methyl-1H-pyrazolo[3,4-d]pyrimidin-1-yl)ethyl)-5-chloro-2-methoxy-6-methylphenyl)nicotinonitrile] |

The next lines start with the compound.

| SMILES | IC50 |
| --- | --- |
| CCOc1c(C(C)n2nc(C)c3c(N)ncnc32)cc(C)c(C#N)c1-c1ccc(C(=O)N(C)C)nc1 (single isomer, unassigned) [314 (2nd peak), 5-{3-[1-(4-amino-3-methyl-1H-pyrazolo[3,4-d]pyrimidin-1-yl)ethyl]-6-cyano-2-ethoxy-5-methylphenyl}-N,N-dimethylpyridine-2-carboxamide] | ≤ 10 nM |
| COc1c(C(C)n2nc(C)c3c(N)ncnc32)cc(Cl)c(C)c1-c1ccc(C(=O)N(C)C)c(F)c1 (single isomer, unassigned) [Example 21, 3′-[1-(4-Amino-3-methyl-1H-pyrazolo[3,4-d]pyrimidin-1-yl)ethyl]-5′-chloro-3-fluoro-2′-methoxy-N,N,6′-trimethylbiphenyl-4-carboxamide trifluoroacetate] | ≤ 10 nM |
| CNC(=O)c1ccc(-c2c(C)c(Cl)cc(C(C)n3nc(C)c4c(N)ncnc43)c2OC)cc1F (single isomer, unassigned) [Example 22, 3′-[1-(4-Amino-3-methyl-1H-pyrazolo[3,4-d]pyrimidin-1-yl)ethyl]-5′-chloro-3-fluoro-2′-methoxy-N,6′-dimethylbiphenyl-4-carboxamide trifluoroacetate] | ≤ 10 nM |
| COc1c(C(C)n2nc(C)c3c(N)ncnc32)cc(Cl)c(C)c1C1CN(C(=O)C2CC2)C1 (single isomer, unassigned) [Example 119, 1-(1-{5-Chloro-3-[1-(cyclopropylcarbonyl)azetidin-3-yl]-2-methoxy-4-methylphenyl}ethyl)-3-methyl-1H-pyrazolo[3,4-d]pyrimidin-4-amine] | ≤ 10 nM |
| COc1c(C(C)n2nc(C)c3c(N)ncnc32)cc(Cl)c(C)c1C1CN(C(=O)c2cnoc2C)C1 (single isomer, unassigned) [Example 120, 1-[1-(5-Chloro-2-methoxy-4-methyl-3-{1-[(5-methylisoxazol-4-yl)carbonyl]azetidin-3-yl}phenyl)ethyl]-3-methyl-1H-pyrazolo[3,4-d]pyrimidin-4-amine] | ≤ 10 nM |
| COc1c(C(C)n2nc(C)c3c(N)ncnc32)cc(Cl)c(C)c1C1CN(C(=O)C2(O)CC2)C1 (single isomer, unassigned) [Example 122, 1-[(3-{3-[1-(4-Amino-3-methyl-1H-pyrazolo[3,4-d]pyrimidin-1-yl)ethyl]-5-chloro-2-methoxy-6-methylphenyl}azetidin-1-yl)carbonyl]cyclopropanol] | ≤ 10 nM |
| COc1c(C(C)n2nc(C)c3c(N)ncnc32)cc(Cl)c(C)c1C1CN(C(=O)C(C)(C)O)C1 (single isomer, unassigned) [Example 123, 1-(3-{3-[1-(4-Amino-3-methyl-1H-pyrazolo[3,4-d]pyrimidin-1-yl)ethyl]-5-chloro-2-methoxy-6-methylphenyl}azetidin-1-yl)-2-methyl-1-oxopropan-2-ol] | ≤ 10 nM |
| COc1c(C(C)n2nc(C)c3c(N)ncnc32)cc(Cl)c(C)c1C1CN(C(=O)c2cn[nH]c2)C1 (single isomer, unassigned) [Example 124, 1-(1-{5-Chloro-2-methoxy-4-methyl-3-[1-(1H-pyrazol-4-ylcarbonyl)azetidin-3-yl]phenyl}ethyl)-3-methyl-1H-pyrazolo[3,4-d]pyrimidin-4-amine] | ≤ 10 nM |
| COc1c(C(C)n2nc(C)c3c(N)ncnc32)cc(Cl)c(C)c1-c1cncnc1 (single isomer, unassigned) [Example 168, 1-(1-(5-chloro-2-methoxy-4-methyl-3-(pyrimidin-5-yl)phenyl)ethyl)-3-methyl-1H-pyrazolo[3,4-d]pyrimidin-4-amine] | ≤ 10 nM |
| COc1c(C(C)n2nc(C)c3c(N)ncnc32)cc(Cl)c(C)c1-c1cnc(N)nc1 (single isomer, unassigned) [Example 169, 1-(1-(3-(2-aminopyrimidin-5-yl)-5-chloro-2-methoxy-4-methylphenyl)ethyl)-3-methyl-1H-pyrazolo[3,4-d]pyrimidin-4-amine] | ≤ 10 nM |
| COc1c(C(C)n2nc(C)c3c(N)ncnc32)cc(Cl)c(C)c1-c1ccc(N)nc1 (single isomer, unassigned) [Example 171, 1-(1-(3-(6-aminopyridin-3-yl)-5-chloro-2-methoxy-4-methylphenyl)ethyl)-3-methyl-1H-pyrazolo[3,4-d]pyrimidin-4-amine] | ≤ 10 nM |
| COc1c(C(C)n2nc(C)c3c(N)ncnc32)cc(Cl)c(C)c1-c1cncc(S(C)(=O)=O)c1 (single isomer, unassigned) [Example 172, 1-(1-(5-chloro-2-methoxy-4-methyl-3-(5-(methylsulfonyl)pyridin-3-yl)phenyl)ethyl)-3-methyl-1H-pyrazolo[3,4-d]pyrimidin-4-amine] | ≤ 10 nM |
| CNC(=O)c1ccc(-c2c(C)c(Cl)cc(C(C)n3nc(C)c4c(N)ncnc43)c2OC)cn1 (single isomer, unassigned) [Example 173, 5-(3-(1-(4-amino-3-methyl-1H-pyrazolo[3,4-d]pyrimidin-1-yl)ethyl)-5-chloro-2-methoxy-6-methylphenyl)-N-methylpicolinamide] | ≤ 10 nM |
| COc1c(C(C)n2nc(C)c3c(N)ncnc32)cc(Cl)c(C)c1-c1cncc(C(=O)N(C)CCO)c1 (single isomer, unassigned) [Example 175, 5-{3-[1-(4-amino-3-methyl-1H-pyrazolo[3,4-d]pyrimidin-1-yl)ethyl]-5-chloro-2-methoxy-6-methylphenyl}-N-(2-hydroxyethyl)-N-methylnicotinamide] | ≤ 10 nM |
| COc1c(C(C)n2nc(C)c3c(N)ncnc32)cc(Cl)c(C)c1-c1cncc(C(=O)N2CCC(O)CC2)c1 (single isomer, unassigned) [Example 176, 1-[(5-{3-[1-(4-amino-3-methyl-1H-pyrazolo[3,4-d]pyrimidin-1-yl)ethyl]-5-chloro-2-methoxy-6-methylphenyl}pyridin-3-yl)carbonyl]piperidin-4-ol] | ≤ 10 nM |
